We go through 3 molecules from US11779530B2, “Composition for the permanent deformation of hair having reduced odor” (Noxell Corporation, priority 2016, dated 2023).

A short description of the series: distribution coefficient log P (octanol/water) of raw materials. It is filed as physicochemical. The settings on record: raw material of one-component malodor suppressant system. The source says: In the fields of organic and medicinal chemistry, a distribution (P) coefficient is the ratio of concentrations of a compound in the two phases of a mixture of two immiscible solvents at equilibrium. […] One of the solvents chosen is water while the second is octanol. […] The partition coefficient is the ratio of concentrations of un-ionized compound between the two solutions. The logarithm of the ratio of the concentrations of the un-ionized solute in the solvents is called log P:
[formula] The log P (octanol/water) is referred hereinafter as “log P”, unless otherwise specified.

With `CCCCCCCCCCCCCC(=O)OC(C)C` [S1, isopropylmyristate], the “log P (octanol/water)” value worked out at 7.41. As to `CC1COCc2cc3c(cc21)C(C)(C)C(C)C3(C)C` (stereo not drawn) [S3, Galaxolide], the “log P (octanol/water)” value turned out to be 5.93.

For Operanide [S4], the “log P (octanol/water)” value worked out at 4.90.
